Measured values as given in patent US7972859B2, “Authentication of ingestible products using saccharides as markers” (Authentix, Inc., priority 2006, dated 2011).
Like-named read-outs stand apart in the source and are kept apart here.

Legend:
Maltose binding protein = Maltose binding protein (Escherichia coli, UniProt P0AEX9); conditions: cited from earlier work
MBP [1] = target: T1, MBP (Escherichia coli, UniProt P0AEX9)
Method: TMB (3,3′,5,5′ tetramethylbenzidine) is a chromogen that yields a blue color when oxidized with hydrogen peroxide (catalyzed by HRP) with major absorbances at 370 nm and 652 nm. Adding sulfuric or phosphoric acid to stop the reaction changes the product to yellow that absorbs at 450 nm and provides greater sensitivity than the blue product.
For any test samples outside of such a range, dilution with a buffered solution is carried out.

MBP [2] = target: T1, MBP; assay: inhibition of amylose-MBP binding by maltose (ELISA); parameters: 6xHis (C); made in house; host or cells: E. coli BL-21 (DE3); species or system E. coli

maltotriose
Kd (Maltose binding protein; Kd expressed as ppb): about 120 ppb

amylose
Absorbance at 450 nm (MBP [1]; Na2CO3 buffer pH 8.3, listed as level 0.0001 (unit not given)): 0.215
Absorbance at 450 nm (MBP [1]; Na2CO3 buffer pH 8.3, listed as level 0.0002 (unit not given)): 0.181
Absorbance at 450 nm (MBP [1]; Na2CO3 buffer pH 8.3, listed as level 0.0005 (unit not given)): 0.233
Absorbance at 450 nm (MBP [1]; Na2CO3 buffer pH 8.3, listed as level 0.001 (unit not given)): 0.216
Absorbance at 450 nm (MBP [1]; Na2CO3 buffer pH 8.3, listed as level 0.01 (unit not given)): 0.440
Absorbance at 450 nm (MBP [1]; Na2CO3 buffer pH 8.3, listed as level 0.1 (unit not given)): 0.870
Absorbance at 450 nm (MBP [1]; Na2CO3 buffer pH 8.3, listed as level 1 (unit not given)): 0.748
Absorbance at 450 nm (MBP [1]; Na2CO3 buffer pH 8.9, listed as level 0.0001 (unit not given)): 0.215
Absorbance at 450 nm (MBP [1]; Na2CO3 buffer pH 8.9, listed as level 0.0002 (unit not given)): 0.170
Absorbance at 450 nm (MBP [1]; Na2CO3 buffer pH 8.9, listed as level 0.0005 (unit not given)): 0.175
Absorbance at 450 nm (MBP [1]; Na2CO3 buffer pH 8.9, listed as level 0.001 (unit not given)): 0.248
Absorbance at 450 nm (MBP [1]; Na2CO3 buffer pH 8.9, listed as level 0.01 (unit not given)): 0.502
Absorbance at 450 nm (MBP [1]; Na2CO3 buffer pH 8.9, listed as level 0.1 (unit not given)): 0.847
Absorbance at 450 nm (MBP [1]; Na2CO3 buffer pH 8.9, listed as level 1 (unit not given)): 0.787
Absorbance at 450 nm (MBP [1]; Na2CO3 buffer pH 9.3, listed as level 0.0001 (unit not given)): 0.196
Absorbance at 450 nm (MBP [1]; Na2CO3 buffer pH 9.3, listed as level 0.0002 (unit not given)): 0.169
Absorbance at 450 nm (MBP [1]; Na2CO3 buffer pH 9.3, listed as level 0.0005 (unit not given)): 0.152
Absorbance at 450 nm (MBP [1]; Na2CO3 buffer pH 9.3, listed as level 0.001 (unit not given)): 0.179
Absorbance at 450 nm (MBP [1]; Na2CO3 buffer pH 9.3, listed as level 0.01 (unit not given)): 0.438
Absorbance at 450 nm (MBP [1]; Na2CO3 buffer pH 9.3, listed as level 0.1 (unit not given)): 0.828
Absorbance at 450 nm (MBP [1]; Na2CO3 buffer pH 9.3, listed as level 1 (unit not given)): 0.788
Absorbance at 450 nm (MBP [1]; Na2CO3 buffer pH 9.9, listed as level 0.0001 (unit not given)): 0.235
Absorbance at 450 nm (MBP [1]; Na2CO3 buffer pH 9.9, listed as level 0.0002 (unit not given)): 0.182
Absorbance at 450 nm (MBP [1]; Na2CO3 buffer pH 9.9, listed as level 0.0005 (unit not given)): 0.192
Absorbance at 450 nm (MBP [1]; Na2CO3 buffer pH 9.9, listed as level 0.001 (unit not given)): 0.241
Absorbance at 450 nm (MBP [1]; Na2CO3 buffer pH 9.9, listed as level 0.01 (unit not given)): 0.452
Absorbance at 450 nm (MBP [1]; Na2CO3 buffer pH 9.9, listed as level 0.1 (unit not given)): 0.849
Absorbance at 450 nm (MBP [1]; Na2CO3 buffer pH 9.9, listed as level 1 (unit not given)): 0.868
Absorbance at 450 nm (MBP [1]; Na2CO3 buffer pH 10, listed as level 0.0001 (unit not given)): 0.237
Absorbance at 450 nm (MBP [1]; Na2CO3 buffer pH 10, listed as level 0.0002 (unit not given)): 0.224
Absorbance at 450 nm (MBP [1]; Na2CO3 buffer pH 10, listed as level 0.0005 (unit not given)): 0.183
Absorbance at 450 nm (MBP [1]; Na2CO3 buffer pH 10, listed as level 0.001 (unit not given)): 0.160
Absorbance at 450 nm (MBP [1]; Na2CO3 buffer pH 10, listed as level 0.01 (unit not given)): 0.432
Absorbance at 450 nm (MBP [1]; Na2CO3 buffer pH 10, listed as level 0.1 (unit not given)): 0.793
Absorbance at 450 nm (MBP [1]; Na2CO3 buffer pH 10, listed as level 1 (unit not given)): 0.918
Absorbance at 450 nm (MBP [1]; Na2CO3 buffer pH 11, listed as level 0.0001 (unit not given)): 0.185
Absorbance at 450 nm (MBP [1]; Na2CO3 buffer pH 11, listed as level 0.0002 (unit not given)): 0.183
Absorbance at 450 nm (MBP [1]; Na2CO3 buffer pH 11, listed as level 0.0005 (unit not given)): 0.215
Absorbance at 450 nm (MBP [1]; Na2CO3 buffer pH 11, listed as level 0.001 (unit not given)): 0.193
Absorbance at 450 nm (MBP [1]; Na2CO3 buffer pH 11, listed as level 0.01 (unit not given)): 0.512
Absorbance at 450 nm (MBP [1]; Na2CO3 buffer pH 11, listed as level 0.1 (unit not given)): 0.845
Absorbance at 450 nm (MBP [1]; Na2CO3 buffer pH 11, listed as level 1 (unit not given)): 0.908
Absorbance at 450 nm (MBP [1]; NaHCO3 buffer pH 5.7, listed as level 0.0001 (unit not given)): 0.297
Absorbance at 450 nm (MBP [1]; NaHCO3 buffer pH 5.7, listed as level 0.0002 (unit not given)): 0.264
Absorbance at 450 nm (MBP [1]; NaHCO3 buffer pH 5.7, listed as level 0.0005 (unit not given)): 0.314
Absorbance at 450 nm (MBP [1]; NaHCO3 buffer pH 5.7, listed as level 0.001 (unit not given)): 0.238
Absorbance at 450 nm (MBP [1]; NaHCO3 buffer pH 5.7, listed as level 0.01 (unit not given)): 0.465
Absorbance at 450 nm (MBP [1]; NaHCO3 buffer pH 5.7, listed as level 0.1 (unit not given)): 0.861
Absorbance at 450 nm (MBP [1]; NaHCO3 buffer pH 5.7, listed as level 1 (unit not given)): 0.815
Absorbance at 450 nm (MBP [1]; NaHCO3 buffer pH 6.3, listed as level 0.0001 (unit not given)): 0.243
Absorbance at 450 nm (MBP [1]; NaHCO3 buffer pH 6.3, listed as level 0.0002 (unit not given)): 0.192
Absorbance at 450 nm (MBP [1]; NaHCO3 buffer pH 6.3, listed as level 0.0005 (unit not given)): 0.271
Absorbance at 450 nm (MBP [1]; NaHCO3 buffer pH 6.3, listed as level 0.001 (unit not given)): 0.219
Absorbance at 450 nm (MBP [1]; NaHCO3 buffer pH 6.3, listed as level 0.01 (unit not given)): 0.392
Absorbance at 450 nm (MBP [1]; NaHCO3 buffer pH 6.3, listed as level 0.1 (unit not given)): 0.879
Absorbance at 450 nm (MBP [1]; NaHCO3 buffer pH 6.3, listed as level 1 (unit not given)): 0.826
Absorbance at 450 nm (MBP [1]; NaHCO3 buffer pH 6.9, listed as level 0.0001 (unit not given)): 0.199
Absorbance at 450 nm (MBP [1]; NaHCO3 buffer pH 6.9, listed as level 0.0002 (unit not given)): 0.154
Absorbance at 450 nm (MBP [1]; NaHCO3 buffer pH 6.9, listed as level 0.0005 (unit not given)): 0.234
Absorbance at 450 nm (MBP [1]; NaHCO3 buffer pH 6.9, listed as level 0.001 (unit not given)): 0.140
Absorbance at 450 nm (MBP [1]; NaHCO3 buffer pH 6.9, listed as level 0.01 (unit not given)): 0.397
Absorbance at 450 nm (MBP [1]; NaHCO3 buffer pH 6.9, listed as level 0.1 (unit not given)): 0.896
Absorbance at 450 nm (MBP [1]; NaHCO3 buffer pH 6.9, listed as level 1 (unit not given)): 0.853
Absorbance at 450 nm (MBP [1]; NaHCO3 buffer pH 7.1, listed as level 0.0001 (unit not given)): 0.217
Absorbance at 450 nm (MBP [1]; NaHCO3 buffer pH 7.1, listed as level 0.0002 (unit not given)): 0.195
Absorbance at 450 nm (MBP [1]; NaHCO3 buffer pH 7.1, listed as level 0.0005 (unit not given)): 0.200
Absorbance at 450 nm (MBP [1]; NaHCO3 buffer pH 7.1, listed as level 0.001 (unit not given)): 0.159
Absorbance at 450 nm (MBP [1]; NaHCO3 buffer pH 7.1, listed as level 0.01 (unit not given)): 0.366
Absorbance at 450 nm (MBP [1]; NaHCO3 buffer pH 7.1, listed as level 0.1 (unit not given)): 0.855
Absorbance at 450 nm (MBP [1]; NaHCO3 buffer pH 7.1, listed as level 1 (unit not given)): 0.849
Absorbance at 450 nm (MBP [1]; NaHCO3 buffer pH 7.7, listed as level 0.0001 (unit not given)): 0.242
Absorbance at 450 nm (MBP [1]; NaHCO3 buffer pH 7.7, listed as level 0.0002 (unit not given)): 0.208
Absorbance at 450 nm (MBP [1]; NaHCO3 buffer pH 7.7, listed as level 0.0005 (unit not given)): 0.187
Absorbance at 450 nm (MBP [1]; NaHCO3 buffer pH 7.7, listed as level 0.001 (unit not given)): 0.254
Absorbance at 450 nm (MBP [1]; NaHCO3 buffer pH 7.7, listed as level 0.01 (unit not given)): 0.387
Absorbance at 450 nm (MBP [1]; NaHCO3 buffer pH 7.7, listed as level 0.1 (unit not given)): 0.817
Absorbance at 450 nm (MBP [1]; NaHCO3 buffer pH 7.7, listed as level 1 (unit not given)): 0.809

OC[C@H]1O[C@H](O[C@H]2[C@H](O)[C@@H](O)[C@H](O)O[C@@H]2CO)[C@H](O)[C@@H](O)[C@@H]1O [maltose]
interference with binding of MBP with amylose (MBP [2]; 50 μM maltose): 90%
inhibition at 5000 µM (MBP [2]; read-out: inhibition of binding of MBP to amylose): 95%
saturated at (level) (Maltose binding protein; saturation of maltose binding protein, as ppb): about 400 ppb
saturated at (concentration) (Maltose binding protein; saturation of maltose binding protein): about 10 μM
